Tested on: promastigotes of Leishmania donovani strain (MHOM/IN/90/GE1F8R)
Assay: alamarBlue activity against promastigotes of L. donovani
Format: cell-based
Conditions: Leishmania donovani; 72 h of incubation; mean with standard deviation
Procedure: (§1) For the anti-leishmanicidal experiments, promastigotes and amastigotes of Leishmania amazonensis strain (MHOM/BR/77/LTB0016) and promastigotes of Leishmania donovani strain (MHOM/IN/90/GE1F8R) were used, and they were maintained in RPMI 1640 medium (Gibco, Waltham, MA, USA) at 26 °C. For the trypanocidal experiments, epimastigotes of Trypanosoma cruzi (Y strain) were used, and they were maintained in liver infusion tryptose (LIT) medium supplemented with 10% of fetal bovine serum (FBS) at 26 °C. Murine macrophages J774A.1 (ATCC #TIB-67), maintained in DMEM medium at 37 °C with 5% CO2, were used for the cytotoxic activity assays.
(§2) For the activity against extracellular parasites of kinetoplastid, Leishmania and Trypanosoma parasites, in a 96-well plate, serial dilutions of the compounds were added with dilutions of 10^5 parasites per well and a 10% of alamarBlue Cell Viability Reagent® (Thermo Fisher Scientific, Waltham, MA, USA). After 72 h of incubation at 26 °C, the fluorescence of each well was measured in the EnSpire Multimode Plate Reader® (PerkinElmer, Thermo Fisher Scientific, Madrid, Spain). The inhibitory concentration 50 (IC50) was calculated by nonlinear regression analysis.

Q: Which IC50 does the source give for `C=C1C(=O)O[C@@H]2/C=C(\C)[C@H](O)CC/C(C)=C/[C@H](O)[C@@H]12` [Tatridin A (4), tatridin A] here?
A: > 94.6 µM

Q: Which IC50 does the source give for `C=C1C(=O)O[C@@H]2[C@@H]3[C@@](C)(CC[C@@H]12)[C@H](O)CC[C@]3(C)O` [4b-Hydroxyarbusculin A (11), 4β-hydroxyarbusculin A] here?
A: > 201 µM

Q: Which IC50 does the source give for `C=C1CCC2C(=C)C(=O)OC2C=C(C)CCC1O` (stereo not shown) [Artemorin (1), artemorin] here?
A: > 201 µM

Q: Which IC50 does the source give for `C=C1CC[C@@H](C(C)C)/C=C/[C@@](C)(O)CC[C@H]1O` [Nephthediol (10), (−) nephthediol] here?
A: > 105 µM

Same assay, conditions: selectivity index CC50/IC50 (macrophages J744A.1 vs parasite)

Q: With `C=C1C(=O)O[C@@H]2/C=C(\C)[C@H](O)CC/C(C)=C/[C@H](O)[C@@H]12` [Tatridin A (4), tatridin A] as the compound, how does the “Promastigotes L. donovani SI” value read?
A: <0.34

Q: Which “Promastigotes L. donovani SI” value does the source give for `C=C1CC[C@@H](C(C)C)/C=C/[C@@](C)(O)CC[C@H]1O` [Nephthediol (10), (−) nephthediol] here?
A: <0.22

Tested on: promastigotes of Leishmania amazonensis strain (MHOM/BR/77/LTB0016)
Assay: alamarBlue activity against promastigotes of L. amazonensis
Format: cell-based
Conditions: Leishmania amazonensis; 72 h of incubation; mean with standard deviation
Procedure: as §1, §2

Q: With `C=C1C(=O)O[C@@H]2/C=C(\C)[C@H](O)CC/C(C)=C/[C@H](O)[C@@H]12` [Tatridin A (4), tatridin A] as the compound, how does the IC50 read?
A: > 94.6 µM

Q: With `C=C1C(=O)O[C@@H]2[C@@H]3[C@@](C)(CC[C@@H]12)[C@H](O)CC[C@]3(C)O` [4b-Hydroxyarbusculin A (11), 4β-hydroxyarbusculin A] as the compound, how does the IC50 read?
A: 76.4 ± 5.72 µM

Q: For `C=C1CCC2C(=C)C(=O)OC2C=C(C)CCC1O` (stereo not shown) [Artemorin (1), artemorin], which IC50 is on record?
A: 40.9 ± 2.82 µM

Q: For `C=C1CC[C@@H](C(C)C)/C=C/[C@@](C)(O)CC[C@H]1O` [Nephthediol (10), (−) nephthediol], which IC50 is on record?
A: > 105 µM

Same assay, conditions: selectivity index CC50/IC50

Q: For `C=C1C(=O)O[C@@H]2/C=C(\C)[C@H](O)CC/C(C)=C/[C@H](O)[C@@H]12` [Tatridin A (4), tatridin A], which “Promastigotes L. amazonensis SI” value is on record?
A: <0.34

Q: With `C=C1C(=O)O[C@@H]2[C@@H]3[C@@](C)(CC[C@@H]12)[C@H](O)CC[C@]3(C)O` [4b-Hydroxyarbusculin A (11), 4β-hydroxyarbusculin A] as the compound, how does the “Promastigotes L. amazonensis SI” value read?
A: >5.27

Q: Which “Promastigotes L. amazonensis SI” value does the source give for `C=C1CCC2C(=C)C(=O)OC2C=C(C)CCC1O` (stereo not shown) [Artemorin (1), artemorin] here?
A: >9.85

Q: For `C=C1CC[C@@H](C(C)C)/C=C/[C@@](C)(O)CC[C@H]1O` [Nephthediol (10), (−) nephthediol], which “Promastigotes L. amazonensis SI” value is on record?
A: <0.22

Tested on: promastigotes of L. amazonensis
Assay: Chromatin condensation, Hoechst 33342/propidium iodide
Format: cell-based, Leishmania amazonensis
Conditions: IC90, 24 h

Q: Which Chromatin condensation does the source give for `C=C1C(=O)O[C@@H]2[C@@H]3[C@@](C)(CC[C@@H]12)[C@H](O)CC[C@]3(C)O` [4b-Hydroxyarbusculin A (11), 4β-hydroxyarbusculin A] here?
A: induced chromatin condensation

Tested on: promastigotes of L. amazonensis
Assay: Reactive oxygen species detection, CellROX Deep Red
Format: cell-based, Leishmania amazonensis
Conditions: IC90, 24 h

Q: Which “Reactive oxygen species detection” value does the source give for `C=C1C(=O)O[C@@H]2[C@@H]3[C@@](C)(CC[C@@H]12)[C@H](O)CC[C@]3(C)O` [4b-Hydroxyarbusculin A (11), 4β-hydroxyarbusculin A] here?
A: presence of red fluorescence

Tested on: amastigotes of L. amazonensis
Assay: alamarBlue activity against intracellular amastigotes of L. amazonensis in murine macrophages
Format: cell-based, Leishmania amazonensis
Conditions: Leishmania amazonensis, Macrophage; 24 h of incubation; intracellular form in murine macrophages
Procedure: as §1
To determinate the IC50 against the intracellular form of the parasite amastigotes of L. amazonensis, the alamarBlue colorimetric method was also used. In a 96-well plate, murine macrophages were added in a concentration of 10^4 cells per well. After adherence of the cells, 10^5 promastigotes of the parasite were added to reach 1:10 cell:parasites per well. After 24 h of incubation at 37 °C with 5% of CO2 for the internalization of the parasite, the wells were washed, and serial dilutions of the compounds were added. After an incubation of 24 h with the compounds, the wells were washed, and the macrophages were broken with a solution of SDS (Sodium dodecyl sulfate) at 0.05% for 30 s. After adding fresh RPMI medium, we added 10% of alamarBlue, and the plates were incubated at 26 °C for 96 h. Finally, the fluorescence was measured by using the EnSpire Multimode Plate Reader® (PerkinElmer, Thermo Fisher Scientific, Madrid, Spain), and the IC50 of each compound was calculated.

Q: With `C=C1C(=O)O[C@@H]2[C@@H]3[C@@](C)(CC[C@@H]12)[C@H](O)CC[C@]3(C)O` [4b-Hydroxyarbusculin A (11), 4β-hydroxyarbusculin A] as the compound, how does the IC50 read?
A: 15.8 ± 1.01 µM

Q: For `C=C1CCC2C(=C)C(=O)OC2C=C(C)CCC1O` (stereo not shown) [Artemorin (1), artemorin], which IC50 is on record?
A: 40.1 ± 3.44 µM

Same assay, conditions: selectivity index CC50/IC50

Q: For `C=C1C(=O)O[C@@H]2[C@@H]3[C@@](C)(CC[C@@H]12)[C@H](O)CC[C@]3(C)O` [4b-Hydroxyarbusculin A (11), 4β-hydroxyarbusculin A], which “Amastigotes L. amazonensis SI” value is on record?
A: >25.47

Q: For `C=C1CCC2C(=C)C(=O)OC2C=C(C)CCC1O` (stereo not shown) [Artemorin (1), artemorin], which “Amastigotes L. amazonensis SI” value is on record?
A: >10.04

Same assay, conditions: selectivity index CC50/IC50; listed as 4β-hydroxyarbusculin A (11)

Q: Which “Amastigotes L. amazonensis SI” value does the source give for `C=C1C(=O)O[C@@H]2[C@@H]3[C@@](C)(CC[C@@H]12)[C@H](O)CC[C@]3(C)O` [4b-Hydroxyarbusculin A (11), 4β-hydroxyarbusculin A] here?
A: > 25.47

Tested on: not listed separately
Assay: alamarBlue cytotoxicity on murine macrophages
Format: cell-based
Conditions: mouse, J774A.1 macrophages; 24 h of incubation; read-out: Macrophages J744A.1 CC50

Q: With `C=C1C(=O)O[C@@H]2/C=C(\C)[C@H](O)CC/C(C)=C/[C@H](O)[C@@H]12` [Tatridin A (4), tatridin A] as the compound, how does the CC50 at 24 h read?
A: 32.4 ± 6.55 µM

Q: With `C=C1C(=O)O[C@@H]2[C@@H]3[C@@](C)(CC[C@@H]12)[C@H](O)CC[C@]3(C)O` [4b-Hydroxyarbusculin A (11), 4β-hydroxyarbusculin A] as the compound, how does the CC50 at 24 h read?
A: > 403 µM

Q: With `C=C1CCC2C(=C)C(=O)OC2C=C(C)CCC1O` (stereo not shown) [Artemorin (1), artemorin] as the compound, how does the CC50 at 24 h read?
A: > 403 µM

Q: For `C=C1CC[C@@H](C(C)C)/C=C/[C@@](C)(O)CC[C@H]1O` [Nephthediol (10), (−) nephthediol], which CC50 at 24 h is on record?
A: 23.58 ± 0.21 µM

Tested on: promastigotes of L. amazonensis
Assay: Plasmatic membrane permeability, SYTOX Green
Format: cell-based, Leishmania amazonensis
Conditions: IC90, 24 h

Q: With `C=C1C(=O)O[C@@H]2[C@@H]3[C@@](C)(CC[C@@H]12)[C@H](O)CC[C@]3(C)O` [4b-Hydroxyarbusculin A (11), 4β-hydroxyarbusculin A] as the compound, how does the Plasmatic membrane permeability read?
A: increase on the plasmatic membrane permeability

Tested on: epimastigotes of Trypanosoma cruzi (Y strain)
Assay: alamarBlue activity against epimastigotes of T. cruzi
Format: cell-based
Conditions: Trypanosoma cruzi; 72 h of incubation; mean with standard deviation
Procedure: as §1, §2

Q: For `C=C1C(=O)O[C@@H]2/C=C(\C)[C@H](O)CC/C(C)=C/[C@H](O)[C@@H]12` [Tatridin A (4), tatridin A], which IC50 is on record?
A: > 94.6 µM

Q: With `C=C1C(=O)O[C@@H]2[C@@H]3[C@@](C)(CC[C@@H]12)[C@H](O)CC[C@]3(C)O` [4b-Hydroxyarbusculin A (11), 4β-hydroxyarbusculin A] as the compound, how does the IC50 read?
A: > 201 µM

Q: Which IC50 does the source give for `C=C1CCC2C(=C)C(=O)OC2C=C(C)CCC1O` (stereo not shown) [Artemorin (1), artemorin] here?
A: 81 ± 12 µM

Q: With `C=C1CC[C@@H](C(C)C)/C=C/[C@@](C)(O)CC[C@H]1O` [Nephthediol (10), (−) nephthediol] as the compound, how does the IC50 read?
A: > 105 µM

Same assay, conditions: selectivity index CC50/IC50

Q: Which “Epimastigotes T. cruzi SI” value does the source give for `C=C1C(=O)O[C@@H]2/C=C(\C)[C@H](O)CC/C(C)=C/[C@H](O)[C@@H]12` [Tatridin A (4), tatridin A] here?
A: <0.34

Q: With `C=C1CCC2C(=C)C(=O)OC2C=C(C)CCC1O` (stereo not shown) [Artemorin (1), artemorin] as the compound, how does the “Epimastigotes T. cruzi SI” value read?
A: >4.97

Q: Which “Epimastigotes T. cruzi SI” value does the source give for `C=C1CC[C@@H](C(C)C)/C=C/[C@@](C)(O)CC[C@H]1O` [Nephthediol (10), (−) nephthediol] here?
A: <0.22

Tested on: L. amazonensis
Assay: Mitochondrial membrane potential, JC-1
Format: cell-based, Leishmania amazonensis
Conditions: IC90, 24 h
Procedure: The alterations on the mitochondrial membrane potential were measured by using JC-1® reagent. The results were expressed in percentage of variations in the mitochondrial membrane potential relative to the untreated control.
The alterations in the mitochondrial membrane potential were determined by using the JC-1 Mitochondrial Membrane Potential Assay Kit® (Cayman Chemical, Ann Arbor, MI, USA). […] Finally, using the EnSpire Multimode Plate Reader® (PerkinElmer, Thermo Fisher Scientific, Madrid, Spain), we measured the fluorescence, and the results were expressed in the percentage relative to the negative control (without any treatment), using the ratio 595 nm/535 nm (aggregates/monomers). All of the experiments were performed in triplicate in three different days (n = 3).

Q: For `C=C1C(=O)O[C@@H]2[C@@H]3[C@@](C)(CC[C@@H]12)[C@H](O)CC[C@]3(C)O` [4b-Hydroxyarbusculin A (11), 4β-hydroxyarbusculin A], which “Mitochondrial membrane potential relative to the negative control” value is on record?
A: 40.99%
